Here are results for 13 molecules from EP0070171A1, “Novel piperidine derivatives, processes for preparation thereof and pharmaceutical compositions containing same” (KYOWA HAKKO KOGYO CO., LTD, priority 1981, dated 1983).

For data set [1], the system named is spontaneously hypertensive rats. Kind of data set: Hypotensive activity in spontaneously hypertensive rats (Experiment 1, tail artery plethysmography). It counts as in vivo. As to conditions: maximum reduction after administration versus pressure before administration; oral, 3 mg/100 g body weight, suspended in 0.3% (W/V) CMC; SHR 15 weeks old, five rats per group. Here is the method:
This experiment was conducted according to the procedure described in "Spontaneously Hypertensive Rats (SHR) guidelines for Breeding, Care and Use" (published by SHR Conference) (1976) p.ll.
Five spontaneously hypertensive rats (15 weeks old, 180 mmHg or more in blood pressure) were used as one group. A test compound was suspended in 0.3% (W/V) CMC aqueous solution in a concentration of 3 mg/ml, and orally administered to the rats in a dose of 3 mg/100 g body weight. Changes in blood pressure were measured according to the method of tail artery plethysmography (see the literature cited above). The maximum reduction (mmHg) in blood pressure after the administration on the basis of the pressure before the administration is shown in Table 6.

Data set [2] in a line: Acute oral toxicity in mice (Experiment 2, deaths counted after 7 days). As to conditions: mouse, in vivo, in aqueous physiological sodium chloride, doses 300 mg/kg or further 200, 100 or 1000 mg/kg, observation for 7 days, three or four mice per group, read-out: Dose of half being died. Here is the method: Three or four male dd-strain mice (weight 18-20g) were used as one group.
Each of the compounds was added to aqueous physiological sodium chloride, and the mixture was orally administered to the mice in a dose of 300 mg/kg or further 200, 100 or 1000 mg/kg. After the observation for 7 days, the number of deaths were counted.

In the case of `COc1ccc([C@H](O)[C@H](C)N2CCC3(CC2)OC(=O)Nc2ccccc23)cc1OC` (relative stereo) [Compound 25, threo-l'-[2-(3,4-dimethoxyphenyl)-2-hydroxy-1-methylethyl]-(2-oxo-3,4-dihydro-2H-1,3-benzoxazine-4-spiro-4'-piperidine)], the “Reduction in blood pressure (mmHg)” value in data set [1] is reported as 90 mmHg.

Take `COc1ccc([C@@H](O)[C@H](C)N2CCC3(CC2)OC(=O)Nc2ccccc23)cc1OC` (relative stereo) [Compound 26, erythro-l'-[2-(3,4-dimethoxyphenyl)-2-hydroxy-1-methylethyl]-(2-oxo-3,4-dihydro-2H-1,3-benzo-xazine-4-spiro-4'-piperidine)]: in data set [1], the “Reduction in blood pressure (mmHg)” value was 66 mmHg.

For `COc1cc([C@H](O)[C@H](C)N2CCC3(CC2)OC(=O)Nc2ccccc23)cc(OC)c1OC` (relative stereo) [Compound 28], in data set [1], the “Reduction in blood pressure (mmHg)” value was found to be 70 mmHg.

With `COc1cc(OC)c([C@@H](O)[C@H](C)N2CCC3(CC2)OC(=O)Nc2ccccc23)cc1OC` (relative stereo) [Compound 31, erythro-l'-[2-(3,4,6-trimethoxyphenyl)-2-hydroxy-1-methylethyl]-(2-oxo-3,4-dihydro-2H-1,3-benzo-xazine-4-spiro-4'-piperidine)], in data set [1], the “Reduction in blood pressure (mmHg)” value came out at 75 mmHg.

As for `O=C1Nc2ccccc2C2(CCN(CC(O)c3ccccc3)CC2)O1` (stereo not shown) [Compound 2, l'-(2-phenyl-2-hydroxyethyl)-(2-oxo-3,4-dihydro-2H-1,3-benzoxazine-4-spiro-4'-piperidine)], in data set [2], the LD50 at 168 h was greater than 300 mg/kg. In data set [1], the “Reduction in blood pressure (mmHg)” value was found to be 46.3 mmHg.

In the case of `COc1ccc(C(O)CN2CCC3(CC2)OC(=O)Nc2ccccc23)cc1OC` (stereo not shown) [Compound 4, l'-[2-(3,4-dimethoxyphenyl)-2-hydroxyethyl]-(2-oxo-3,4-dihydro-2H-1,3-benzoxazine-4-spiro-4'-piperidine)], the LD50 at 168 h in data set [2] is greater than 1000 mg/kg. Besides, the “Reduction in blood pressure (mmHg)” value in data set [1] came to 95.0 mmHg.

Regarding `O=C1Nc2ccc(Cl)cc2C2(CCN(CC(O)c3ccccc3)CC2)O1` (stereo not shown) [Compound 6, l'-(2-phenyl-2-hydroxyethyl)-(6-chloro-2-oxo-3,4-dihydro-2H-1,3-benzoxazine-4-spiro-4'-piperidine)], the “Reduction in blood pressure (mmHg)” value in data set [1] came to 66.3 mmHg.

For the molecule `O=C1Nc2ccc(Cl)cc2C2(CCN(CC(O)c3ccc(Cl)cc3)CC2)O1` (stereo not shown) [Compound 8, l'-[2-(4-chlorophenyl)-2-hydroxyethyl]-(6-chloro-2-oxo-3,4-dihydro-2H-1,3-benzoxazine-4-spiro-4'-piperidine)], in data set [2], the LD50 at 168 h was greater than 300 mg/kg. The “Reduction in blood pressure (mmHg)” value in data set [1] came out at 67.5 mmHg.

Turning to `O=C1Nc2ccccc2C2(CCN(CC(O)c3ccc(Cl)cc3)CC2)O1` (stereo not shown) [Compound 9], in data set [2], the LD50 at 168 h is greater than 300 mg/kg. For the same molecule, the “Reduction in blood pressure (mmHg)” value in data set [1] was 43.7 mmHg.

In the case of `CN1C(=O)Nc2ccccc2C12CCN(CC(O)c1ccc(Cl)cc1)CC2` (stereo not shown) [Compound 10], in data set [1], the “Reduction in blood pressure (mmHg)” value was 20.0 mmHg.

On to `CN1C(=O)Nc2ccccc2C12CCN(CC(O)c1ccccc1)CC2` (stereo not shown) [Compound 11, l'-(2-phenyl-2-hydroxyethyl)-(3-methyl-3,4-dihydro-2(lH)-quinazolinone-4-spiro-4'-piperidine)], for which, in data set [2], the LD50 at 168 h came to 200 mg/kg. Besides, in data set [1], the “Reduction in blood pressure (mmHg)” value was 47.5 mmHg.

Consider `COc1ccc(C(O)CN2CCC3(CC2)c2ccccc2NC(=O)N3C)cc1OC` (stereo not shown) [Compound 12, l'-[2-(3,4-dimethoxyphenyl)-2-hydroxyethyl]-[3-methyl-3,4-dihydro-2(1H)-quinazolinone-4-spiro-4'-piperidine]], for which the LD50 at 168 h in data set [2] fell in the range of 100 to 300 mg/kg. Also, in data set [1], the “Reduction in blood pressure (mmHg)” value is recorded as 35.0 mmHg.

Regarding `COc1cc(C(O)CN2CCC3(CC2)OC(=O)Nc2ccccc23)cc(OC)c1OC` (stereo not shown) [Compound 32, l'-[2-(3,4,5-trimethoxyphenyl)-2-hydroxyethyl]-(2-oxo-3,4-dihydro-2H-1,3-benzoxazine-4-spiro-4'-piperidine)], the “Reduction in blood pressure (mmHg)” value in data set [1] is listed as 79 mmHg.
